Measured values as given in patent publication US20210323950A1, “HERBICIDALLY ACTIVE BICYCLIC BENZOYLPYRAZOLES” (Bayer Aktiengesellschaft, priority 2018, published 2021).

Experiments:
Format in all cases: in vivo
[1] = test system: Echinochloa crus-galli (ECHCG); assay: Post-emergence herbicidal action against ECHCG; conditions: 20 g/ha, post-emergence at one-leaf stage, rated visually after about 3 weeks vs untreated controls
Protocol: (§1) ECHCG: Echinochloa crus-galli 2. Post-Emergence Herbicidal Action and Crop Plant Compatibility Seeds of monocotyledonous and dicotyledonous weeds and crop plants are placed in sandy loam in plastic or organic planting pots, covered with soil and cultivated in a greenhouse under controlled growth conditions. 2 to 3 weeks after sowing, the test plants are treated at the one-leaf stage. The compounds of the invention, formulated in the form of wettable powders (WP) or as emulsion concentrates (EC), are then sprayed onto the green parts of the plants as aqueous suspension or emulsion with addition of 0.5% additive at a water application rate of […] (converted). After the test plants had been kept in the greenhouse under optimum growth conditions for about 3 weeks, the activity of the preparations is rated visually in comparison to untreated controls. The tables below show the herbicidal activity of numerous compounds according to the invention against important harmful plants. For example, 100% activity=the plants have died, 0% activity=like control plants.

Viola tricolor (VIOTR) = assay: Post-emergence herbicidal action against VIOTR; conditions: 20 g/ha, post-emergence at one-leaf stage, rated visually after about 3 weeks vs untreated controls
Protocol: as §1, with “VIOTR: Viola tricolor” for “ECHCG: Echinochloa crus-galli”

Setaria viridis (SETVI) = assay: Post-emergence herbicidal action against SETVI; conditions: 20 g/ha, post-emergence at one-leaf stage, rated visually after about 3 weeks vs untreated controls
Protocol: as §1, with “SETVI: Setaria viridis” for “ECHCG: Echinochloa crus-galli”

[2] = test system: Amaranthus retroflexus (AMARE); assay: Pre-emergence herbicidal action against AMARE; conditions: scored visually after about 3 weeks vs untreated controls
From the text: (§2) AMARE: Amaranthus retroflexus 1. Pre-Emergence Herbicidal Action and Crop Plant Compatibility Seeds of monocotyledonous and dicotyledonous weed plants and crop plants are placed in plastic or organic planting pots and covered with soil. The compounds of the invention, formulated in the form of wettable powders (WP) or as emulsion concentrates (EC), are then applied onto the surface of the covering soil as aqueous suspension or emulsion with addition of 0.5% additive at a water application rate of […] (converted). After the treatment, the pots are placed in a greenhouse and kept under good growth conditions for the trial plants. After about 3 weeks, the effect of the preparations is scored visually in comparison with untreated controls as percentages. The tables below show the herbicidal activity of numerous compounds according to the invention against important harmful plants. For example, 100% activity=the plants have died, 0% activity=like control plants.

[3] = test system: Abutilon theophrasti (ABUTH); assay: Post-emergence herbicidal action against ABUTH; conditions: 20 g/ha, post-emergence at one-leaf stage, rated visually after about 3 weeks vs untreated controls
Protocol: as §1, with “ABUTH: Abutilon theophrasti” for “ECHCG: Echinochloa crus-galli”

Stellaria media (STEME) [4] = assay: Post-emergence herbicidal action against STEME; conditions: 20 g/ha, post-emergence at one-leaf stage, rated visually after about 3 weeks vs untreated controls
Protocol: as §1, with “STEME: Stellaria media” for “ECHCG: Echinochloa crus-galli”

[5] = test system: Amaranthus retroflexus (AMARE); assay: Post-emergence herbicidal action against AMARE; conditions: 20 g/ha, post-emergence at one-leaf stage, rated visually after about 3 weeks vs untreated controls
Protocol: as §1, with “AMARE: Amaranthus retroflexus” for “ECHCG: Echinochloa crus-galli”

Veronica persica (VERPE) [6] = assay: Pre-emergence herbicidal action against VERPE; conditions: 80 g/ha, scored visually after about 3 weeks vs untreated controls
From the text: as §2, with “VERPE: Veronica persica” for “AMARE: Amaranthus retroflexus”

Veronica persica (VERPE) [7] = assay: Post-emergence herbicidal action against VERPE; conditions: 20 g/ha, post-emergence at one-leaf stage, rated visually after about 3 weeks vs untreated controls
Protocol: as §1, with “VERPE: Veronica persica” for “ECHCG: Echinochloa crus-galli”

Stellaria media (STEME) [8] = assay: Pre-emergence herbicidal action against STEME; conditions: 80 g/ha, scored visually after about 3 weeks vs untreated controls
From the text: as §2, with “STEME: Stellaria media” for “AMARE: Amaranthus retroflexus”

Row | Structure (SMILES) | Post-emergence action against ECHCG [1] | Post-emergence action against VIOTR (Viola tricolor (VIOTR)) | Post-emergence action against SETVI (Setaria viridis (SETVI)) | Pre-emergence action against AMARE ([2]; 320 g/ha) | Post-emergence action against ABUTH [3] | Post-emergence action against STEME (Stellaria media (STEME) [4]) | Post-emergence action against AMARE [5] | Pre-emergence action against VERPE (Veronica persica (VERPE) [6]) | Pre-emergence action against AMARE ([2]; 80 g/ha) | Post-emergence action against VERPE (Veronica persica (VERPE) [7]) | Pre-emergence action against STEME (Stellaria media (STEME) [8])
1 | CCn1ncc(C(=O)c2ccc(C(F)(F)F)c3c2OCS3)c1O [Example 1-18] | 80% | 100% | 80% | 100% | 80% | 90% | – | – | – | – | –
2 | Cn1ncc(C(=O)c2ccc(C(F)(F)F)c3c2SCS3(=O)=O)c1O [Example 1-85] | – | – | – | – | – | 80% | 90% | 90% | 100% | 80% | 100%
3 | Cc1nn(C)c(O)c1C(=O)c1ccc(C(F)(F)F)c2c1SCS2 [Example 1-68] | 80% | 80% | – | – | – | – | 90% | – | 100% | – | 100%
